From US20080182865A1, “HISTONE DEACETYLASE INHIBITORS SENSITIZE CANCER CELLS TO EPIDERMAL GROWTH FACTOR INHIBITORS” (priority 2005, published 2008)

Tests used:
NSCLC patients = settings: cited from earlier work; for response rate: single agent, phase I studies, chemotherapy resistant NSCLC patients
H358 NSCLC cell line = experiment: Apoptosis and cell death (cell cycle analysis); format: cell-based, human; settings: 10 μM
Method: (§1) The effect of gefitinib on inducing apoptosis and cell death in NSCLC cell lines sensitive and resistant to gefitinib was evaluated. […].

H3255 NSCLC cell line = experiment: Apoptosis and cell death (cell cycle analysis); format: cell-based, human; settings: 10 μM
Method: as §1

H322 NSCLC cell line = experiment: Apoptosis and cell death (cell cycle analysis); format: cell-based, human; settings: 10 μM
Method: as §1

A549 NSCLC cell line = experiment: Apoptosis and cell death (cell cycle analysis); format: cell-based, human; settings: 10 μM
Method: as §1

Calu3 NSCLC cell line = experiment: Apoptosis and cell death (cell cycle analysis); format: cell-based, human; settings: 10 μM
Method: as §1

H460 NSCLC cell line = experiment: Apoptosis and cell death (cell cycle analysis); format: cell-based, human; settings: 10 μM
Method: (§2) The effect of gefitinib on inducing apoptosis and cell death in NSCLC cell lines sensitive and resistant to gefitinib was evaluated.

H520 NSCLC cell line = experiment: Apoptosis and cell death (cell cycle analysis); format: cell-based, human; settings: 10 μM
Method: as §2

H157 NSCLC cell line = experiment: Apoptosis and cell death (cell cycle analysis); format: cell-based, human; settings: 10 μM
Method: as §2

E-cad [1] = experiment: E-cad expression after MS-275 in gefitinib-resistant NSCLC cell lines; format: cell-based, human; settings: 24 hours after treatment with 4 or 10 μM
[2] = in vivo; cited from earlier work
E-cad [3] = settings: lung cancer cell lines; cited from earlier work
[4] = unselected gefitinib treated NSCLC patients

COc1cc2ncnc(Nc3ccc(F)c(Cl)c3)c2cc1OCCCN1CCOCC1 [gefitinib]
response rate (NSCLC patients): about 10%
objective response (NSCLC patients; [4]): up to 18%
symptomatic improvement (NSCLC patients; [4]): 40%
increase in apoptosis and cell death (H358 NSCLC cell line): 2.3-3.4 fold
increase in apoptosis and cell death (H3255 NSCLC cell line): 35 fold
increase in apoptosis and cell death (H322 NSCLC cell line): 2.3-3.4 fold
apoptosis and cell death (A549 NSCLC cell line): no apoptotic or necrotic effect
increase in apoptosis and cell death (Calu3 NSCLC cell line): 2.3-3.4 fold
apoptosis and cell death (H460 NSCLC cell line): no apoptotic or necrotic effect
apoptosis and cell death (H520 NSCLC cell line): no apoptotic or necrotic effect
apoptosis and cell death (H157 NSCLC cell line): no apoptotic or necrotic effect

Nc1ccccc1NC(=O)c1ccc(CNC(=O)OCc2cccnc2)cc1 [MS-275]
upregulation of E-cad expression (E-cad [1]; H157): Eight to twelve
upregulation of E-cad expression (E-cad [1]; H460): Eight to twelve
upregulation of E-cad expression (E-cad [1]; H520): Eight to twelve
half-life [2]: 100 h
persistence of changes in histone acetylation following administration [2]: several weeks

C#Cc1cccc(Nc2ncnc3cc(OCCOC)c(OCCOC)cc23)c1 [erlotinib]
survival (NSCLC patients; second or third line therapy, National Cancer Institute Canada trial): survival benefit
response rate (NSCLC patients): about 10%

CC(/C=C/C(=O)NO)=C\[C@@H](C)C(=O)c1ccc(N(C)C)cc1 [TSA, trichostatin A]
effect on E-cad (E-cad [3]): activation of E-cad
